Experimental data published in patent US20250129028A1, “COMPOUNDS AND METHODS FOR YAP/TEAD MODULATION AND INDICATIONS THEREFOR” (Opna Bio SA, priority 2022, published 2025).

Tested on: TEAD-dependent transcription
Test: TEAD-dependent transcription cell-based reporter assay (MSTO-211H+12XGTIIC luciferase)
Design: species or system human
Settings: Homo sapiens; MSTO-211H+12XGTIIC cell line, luciferase signal normalized to cell viability, 24 hours compound incubation; read-out: MSTO-211H GMean IC50 (uM) Cell Assay Reporter Cell Variant: TEAD
Procedure, shortened: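 MSTO-211H mesothelioma cells stably carrying a 12xGTIIC TEAD-response-element luciferase reporter, treated with serial compound dilutions for 24 h at 37 °C. Luminescence normalized to CellTiter-Fluor viability signal; % inhibition versus DMSO and 20 μM K-975 controls, IC50 by nonlinear regression.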

SMILES	IC50 [µM]
CS(=O)(=O)c1ccc(C(=O)N2CCc3ccc(Oc4ccc(C(F)(F)F)cc4)cc3C2)s1 [P-0084, (5-(methylsulfonyl)thio-phen-2-yl)(7-(4-(trifluoro-methyl)phenoxy)-3,4-dihydroisoquinolin-2(1H)-yl)methanone]	0.001 to 10
CS(=O)(=O)CCC(=O)N1CCc2ccc(Oc3ccc(C(F)(F)F)c(F)c3)cc2C1 [P-0085, 1-(7-(3-fluoro-4-(trifluoromethyl)phen-oxy)-3,4-dihydroisoquin-olin-2(1H)-yl)-3-(methyl-sulfonyl)propan-1-one]	0.001 to 10
O=C(CC1CCOC1)N1CCc2ccc(Oc3ccc(C(F)(F)F)cc3)cc2C1 (centres unmarked) [P-0086, 2-(tetrahydrofuran-3-yl)-1-(7-(4-(trifluorometh-yl)phenoxy)-3,4-dihydro-isoquinolin-2(1H)-yl)-ethan-1-one]	0.001 to 10
O=C(CC1CCOCC1)N1CCc2ccc(Oc3ccc(C(F)(F)F)cc3)cc2C1 [P-0087, 2-(tetrahydro-2H-pyran-4-yl)-1-(7-(4-(trifluoro-methyl)phenoxy)-3,4-dihydroisoquinolin-2(1H)-yl)ethan-1-one]	0.001 to 10
O=C1CC(C(=O)N2CCc3ccc(Oc4ccc(C(F)(F)F)cc4)cc3C2)CN1 (centres unmarked) [P-0088, 4-(7-(4-(trifluorometh-yl)phenoxy)-1,2,3,4-tetrahydroisoquinoline-2-carbonyl)pyrrolidin-2-one]	0.001 to 10
CS(=O)(=O)C12CC(C(=O)N3CCc4ccc(Oc5ccc(C(F)(F)F)cc5)cc4C3)(C1)C2 [P-0089, (3-(methylsulfonyl)-bicyclo[1.1.1]pentan-1-yl)(7-(4-(trifluoro-methyl)phenoxy)-3,4-dihydroisoquinolin-2(1H)-yl)methanone]	0.001 to 10
CS(=O)(=O)CCC(=O)N1CCc2ccc(Oc3ccc(Cl)cc3)cc2C1 [P-0090, 1-(7-(4-chlorophenoxy)-3,4-dihydroisoquinolin-2(1H)-yl)-3-(methylsul-fonyl)propan-1-one]	0.001 to 10
O=C(CCS(=O)(=O)C(F)(F)F)N1CCc2ccc(Oc3ccc(Cl)cc3)cc2C1 [P-0091, 1-(7-(4-chlorophenoxy)-3,4-dihydroisoquinolin-2(1H)-yl)-3-((trifluoro-methyl)sulfonyl)propan-1-one]	0.001 to 10
Nc1nccc(C(=O)N2CCc3ccc(Oc4ccc(C(F)(F)F)cc4)cc3C2)n1 [P-0092, (2-aminopyrimidin-4-yl)-(7-(4-(trifluoromethyl)-phenoxy)-3,4-dihydroiso-quinolin-2(1H)-yl)meth-anone]	0.001 to 10
Nc1ncc(CC(=O)N2CCc3ccc(Oc4ccc(C(F)(F)F)cc4)cc3C2)s1 [P-0093, 2-(2-aminothiazol-5-yl)-1-(7-(4-(trifluoromethyl)-phenoxy)-3,4-dihydroiso-quinolin-2(1H)-yl)ethan-1-one]	0.001 to 10
CN(C)CCC(=O)N1CCc2ccc(Oc3ccc(C(F)(F)F)c(F)c3)cc2C1 [P-0094, 3-(dimethylamino)-1-(7-(3-fluoro-4-(trifluoro-methyl)phenoxy)-3,4-dihydroisoquinolin-2(1H)-yl)propan-1-one]	0.001 to 10
CN1CCN(CCC(=O)N2CCc3ccc(Oc4ccc(C(F)(F)F)c(F)c4)cc3C2)CC1 [P-0095, 1-(7-(3-fluoro-4-(trifluoromethyl)phenoxy)-3,4-dihydroisoquinolin-2(1H)-yl)-3-(4-methylpiperazin-1-yl)propan-1-one]	0.001 to 10
NC(=O)NCCC(=O)N1CCc2ccc(Oc3ccc(C(F)(F)F)cc3)cc2C1 [P-0096, 1-(3-oxo-3-(7-(4-(trifluoromethyl)phen-oxy)-3,4-dihydroisoquin-olin-2(1H)-yl)propyl)urea]	0.001 to 10
CN1CC(C(=O)N2CCc3ccc(Oc4ccc(C(F)(F)F)c(F)c4)cc3C2)C1 [P-0097, (7-(3-fluoro-4-(trifluoro-methyl)phenoxy)-3,4-dihydroisoquinolin-2(1H)-yl)(1-methylazet-idin-3-yl)methanone]	0.001 to 10
N=C(N)NCC(=O)N1CCc2ccc(Oc3ccc(C(F)(F)F)cc3)cc2C1 [P-0098, 1-(2-oxo-2-(7-(4-(trifluoromethyl)phen-oxy)-3,4-dihydroiso-quinolin-2(1H)-yl)-ethyl)guanidine]	0.001 to 10
O=C(Cc1cn[nH]c1)N1CCc2ccc(Oc3ccc(C(F)(F)F)cc3)cc2C1 [P-0099, 2-(1H-pyrazol-4-yl)-1-(7-(4-(trifluoromethyl)phen-oxy)-3,4-dihydroisoquin-olin-2(1H)-yl)ethan-1-one]	10 to 100
O=C(CNC(=O)C(F)(F)F)N1CCc2ccc(Oc3ccc(C(F)(F)F)cc3)cc2C1 [P-0100, 2,2,2-trifluoro-N-(2-oxo-2-(7-(4-(trifluoromethyl)-phenoxy)-3,4-dihydroiso-quinolin-2(1H)-yl)ethyl)-acetamide]	0.001 to 10
CS(=O)(=O)NCCC(=O)N1CCc2ccc(Oc3ccc(C(F)(F)F)cc3)cc2C1 [P-0101, N-(3-oxo-3-(7-(4-(trifluoromethyl)phen-oxy)-3,4-dihydroisoquin-olin-2(1H)-yl)propyl)-methanesulfonamide]	0.001 to 10

SMILES	IC50 [µM]
NS(=O)(=O)N1CC(C(=O)N2CCc3ccc(Oc4ccc(C(F)(F)F)cc4)cc3C2)C1 [P-0102, 3-(7-(4-(trifluoromethyl)-phenoxy)-1,2,3,4-tetra-hydroisoquinoline-2-carbonyl)azetidine-1-sulfonamide]	0.001 to 10
O=C(c1cc(C(F)F)[nH]n1)N1CCc2ccc(Oc3ccc(C(F)(F)F)cc3)cc2C1 [P-0103, (5-(difluoromethyl)-1H-pyrazol-3-yl)(7-(4-(trifluoromethyl)phen-oxy)-3,4-dihydroisoquin-olin-2(1H)-yl)methanone]	0.001 to 10
NC(=O)NCC(=O)N1CCc2ccc(Oc3ccc(Cl)cc3)cc2C1 [P-0104, 1-(2-(7-(4-chlorophen-oxy)-3,4-dihydroisoquin-olin-2(1H)-yl)-2-oxoeth-yl)urea]	0.001 to 10
CN1CCC(C(=O)N2CCc3ccc(Oc4ccc(C(F)(F)F)c(F)c4)cc3C2)C1 (centres unmarked) [P-0105, (7-(3-fluoro-4-(trifluoro-methyl)phenoxy)-3,4-dihydroisoquinolin-2(1H)-yl)(1-methylpyr-rolidin-3-yl)methanone]	0.001 to 10
N=C(N)NCCC(=O)N1CCc2ccc(Oc3ccc(C(F)(F)F)cc3)cc2C1 [P-0106, 1-(3-oxo-3-(7-(4-(trifluoromethyl)phen-oxy)-3,4-dihydroisoquin-olin-2(1H)-yl)propyl)-guanidine]	0.001 to 10
Nc1nc(C(=O)N2CCc3ccc(Oc4ccc(C(F)(F)F)cc4)cc3C2)c[nH]1 [P-0107, (2-amino-1H-imidazol-4-yl)(7-(4-(trifluoromethyl)-phenoxy)-3,4-dihydroiso-quinolin-2(1H)-yl)meth-anone]	0.001 to 10
O=C(c1cocn1)N1CCc2ccc(Oc3ccc(C(F)(F)F)cc3)cc2C1 [P-0108, oxazol-4-yl(7-(4-(trifluoromethyl)phen-oxy)-3,4-dihydroisoquin-olin-2(1H)-yl)methanone]	0.001 to 10
CN1CCC(C(=O)N2CCc3ccc(Oc4ccc(C(F)(F)F)c(F)c4)cc3C2)CC1 [P-0109, (7-(3-fluoro-4-(trifluoro-methyl)phenoxy)-3,4-dihydroisoquinolin-2(1H)-yl)(1-methylpiper-idin-4-yl)methanone]	0.001 to 10
CN(C)CCCC(=O)N1CCc2ccc(Oc3ccc(C(F)(F)F)c(F)c3)cc2C1 [P-0110, 4-(dimethylamino)-1-(7-(3-fluoro-4-(trifluoro-methyl)phenoxy)-3,4-dihydroisoquinolin-2(1H)-yl)butan-1-one]	0.001 to 10
CN(C)C1CC(C(=O)N2CCc3ccc(Oc4ccc(C(F)(F)F)c(F)c4)cc3C2)C1 (centres unmarked) [P-0111, (3-(dimethylamino)cyclo-butyl)(7-(3-fluoro-4-(trifluoromethyl)phen-oxy)-3,4-dihydroisoquin-olin-2(1H)-yl)methanone]	0.001 to 10
CC(C)(C)OC(=O)NCC(=O)N1CCc2ccc(Oc3ccc(C(F)(F)F)c(F)c3)cc2C1 [P-0112, tert-butyl (2-(7-(3-fluoro-4-(trifluoromethyl)phen-oxy)-3,4-dihydroisoquin-olin-2(1H)-yl)-2-oxoeth-yl)carbamate]	0.001 to 10
NCC(=O)N1CCc2ccc(Oc3ccc(C(F)(F)F)c(F)c3)cc2C1 [P-0113, 2-amino-1-(7-(3-fluoro-4-(trifluoromethyl)phen-oxy)-3,4-dihydroisoquin-olin-2(1H)-yl)ethan-1-one]	0.001 to 10
O=C(CNS(=O)(=O)C(F)(F)F)N1CCc2ccc(Oc3ccc(C(F)(F)F)c(F)c3)cc2C1 [P-0114, 1,1,1-trifluoro-N-(2-(7-(3-fluoro-4-(trifluoromethyl)phenoxy)-3,4-dihydroisoquinolin-2(1H)-yl)-2-oxoethyl)methanesulfonamide]	0.001 to 10
C=CC(=O)NCC(=O)N1CCc2ccc(Oc3ccc(C(F)(F)F)c(F)c3)cc2C1 [P-0115, N-(2-(7-(3-fluoro-4-(trifluoromethyl)phen-oxy)-3,4-dihydroisoquin-olin-2(1H)-yl)-2-oxoeth-yl)acrylamide]	0.001 to 10
CN(C)S(=O)(=O)NCC(=O)N1CCc2ccc(Oc3ccc(C(F)(F)F)c(F)c3)cc2C1 [P-0116, N,N-dimethyl-N′-(2-(7-(3-fluoro-4-(trifluoro-methyl)phenoxy)-3,4-dihydroisoquinolin-2(1H)-yl)-2-oxoethyl)-sulfamide]	0.001 to 10
O=C(CNS(=O)(=O)C1CC1)N1CCc2ccc(Oc3ccc(C(F)(F)F)c(F)c3)cc2C1 [P-0117, N-(2-(7-(3-fluoro-4-(trifluoromethyl)phen-oxy)-3,4-dihydroisoquin-olin-2(1H)-yl)-2-oxoeth-yl)cyclopropanesulfon-amide]	0.001 to 10
C=CC(=O)N1CC(C(=O)N2CCc3ccc(Oc4ccc(C(F)(F)F)c(F)c4)cc3C2)C1 [P-0118, 1-(3-(7-(3-fluoro-4-(trifluoromethyl)phen-oxy)-1,2,3,4-tetrahydro-isoquinoline-2-carbon-yl)azetidin-1-yl)prop-2-en-1-one]	0.001 to 10
